These are literature values, as cited in PMC9795861, “Inclusion complexes of the steroid hormones 17β-estradiol and progesterone with β- and γ-cyclodextrin hosts: syntheses, X-ray structures, thermal analyses and API solubility enhancements” (Beilstein Journal of Organic Chemistry, 2022).

Read-outs that look alike come from different tables or passages of the source.

On the set-up of data set [1]: method as in earlier work.

Turning to `CC(=O)[C@H]1CC[C@H]2[C@@H]3CCC4=CC(=O)CC[C@]4(C)[C@H]3CC[C@]12C` [progesterone], the aqueous solubility (at 25 °C, pure progesterone, ref 6-8 (b3)) was 8.81 × 10^−3 mg·cm^−3.
For the molecule `C#C[C@]1(O)CC[C@H]2[C@@H]3CCc4cc(O)ccc4[C@H]3CC[C@@]21C` [ethinylestradiol], the “oral bioavailability relative to that of BES” value in data set [1] is given as “significantly higher”. Also, the aqueous solubility (at 27 °C, ethinylestradiol) was 11.3 × 10^−3 mg·cm^−3.
